From patent US20230174562A1, “RADIO-AND CHEMO-PROTECTIVE COMPOUNDS” (TONIX PHARMACEUTICALS, INC., priority 2020, published 2023)

Assays:
[1] = system: mice exposed to whole body irradiation; assay: Radiation LD50 in mice after whole body irradiation; format: in vivo; conditions: oral gavage 60 minutes prior to whole body irradiation 2-12 Gy, 30 days
Description: The affect of the compounds according to the disclosure on the dose of radiation required to kill 50% of mice (LD50) is assessed.
Mice are assigned to three groups (Groups 1, 2 and 3). A control group, Group 1, is treated via oral gavage with vehicle (Lactated Ringer's and 5% dextrose, adjusted to pH 7.3 with sodium bicarbonate) 60 minutes prior to whole body irradiation (2 Gy). Group 2 is treated via oral gavage with PrC-210, as a positive control, dissolved in Lactated Ringer's at a dose of 200 mg/kg 60 minutes prior to whole body irradiaton (2 Gy). Group 3 is treated via oral gavage with compound 1 (PrC-210-PT) dissolved in Lactated Ringer's at a dose of 308 mg/kg 60 minutes prior to whole body irradiation (2 Gy). The mortality of the three groups is assessed for 30 days post irradiation.
The experiment is repeated using varying radiation doses of 4, 6, 8, 10 and 12 Gy. The LD50 for each group was determined.
The experiment is repeated to assess compounds 2-23 as radioprotectors.

[2] = cited from earlier work
[3] = system: mice exposed to total body irradiation (TBI); assay: Phase 2 efficacy: survival of mice dosed before total body irradiation (TBI) at LD100/30; format: in vivo; conditions: for survival compared to vehicle (Group 13) by Chi-square test / survival compared to vehicle (Group 13) by Log-rank (Mantel-Cox) test / number of animals survived until scheduled sacrifice (Day 30) / number of mice moribund sacrificed / number of mice found dead: 1000 mg/kg oral gavage before TBI 9.9 Gy; for Survival: Day 30, 11 animals; for Survival / median survival time: male mice, 1000 mg/kg oral gavage 60±5 min before TBI 9.9 Gy (LD100/30); for body weight gain on Days 5 to 9: compared to the vehicle group (Group 13); for number of animals survived until scheduled sacrifice (Day 30) / number of mice moribund sacrificed / number of mice found dead: of 11 mice; for survival of animals through 30 days post exposure: treated prior to total body irradiation (LD100/30)
Description: (§1) Male mice were randomized and assessed in two phases: 1) for maximum tolerated doses (MTDs) of PrC-210, DzCH2SH, and 2Pip-2PrSH to determine dose levels for the efficacy study and 2) to evaluate the efficacy of the compounds when administered 60±5 minutes prior to exposure to total body irradiation (TBI) at an LD100/30 dose (990 cGy) (Tables 1 and 2).
(§2) For Phase 1 or 2, sterile water (vehicle), PrC-210, DzCH2SH, and 2Pip2PrSH were administered at 10 mL/kg calculated based on the most recent body weight via oral gavage. Animals were not fasted prior to administration of the compounds or vehicle. Mice in Phase 1 were administered the dose on Day 1 and mice in Phase 2 were administered the dose 60±5 minutes prior to TBI on Day 0.
Irradiation was administered once to the whole body. TBI of mice were performed using a 6 MV LINAC photon source (TrueBeam STx source). Animals were irradiated at a dose rate of up to 80 cGy/min to the midline of the animals. The source irradiated animals to 50% of the dose from anterior-posterior direction and […] from the posterior-anterior direction. Dose measurements were performed with a PTW 31010 0.1 cc Semiflex Ion chamber.
(§3) All surviving animals were observed once daily for clinical signs (e.g., unusually low or high activity, lethargy, shivering, appearance of fur, bloody and water stool, and other symptoms of moribundity) at 1-2 hours post-irradiation and/or post-dose and once daily on non-dosing days until Day 4 (Phase 1) or Day 30 (Phase 2).
In Phase 2 (Table 2), survival curves of mice treated with vehicle, PrC-210, DzCH2SH or 2Pip-PrSH prior to TBI with 9.9 Gy were measured (FIG. 1). […] Five mice were moribund sacrificed, and 6 mice were found dead. Survival in the Group 13 animals was 0% and median survival time was 8 days. In mice administered with PrC-210 before TBI (Group 14), 4 animals survived until scheduled sacrifice (Day 30) while 7 mice were moribund sacrificed. […] In mice administered with DzCH2SH before TBI (Group 15), 3 animals survived until scheduled sacrifice (Day 30) while 7 mice were moribund sacrificed, and one mouse was found dead. […] Five mice were moribund sacrificed and six mice were found dead. Survival in the Group 16 mice was 0% and median survival time was 10 days.

mice = assay: Phase 1 maximum tolerated dose (MTD) determination in mice; format: in vivo; conditions: male mice; oral gavage; 1,000 mg/kg
Description: as §1, §2, §3
In Phase 1 (Table 1), all animals were normal when observed and all body weights were within normal range. The dose level of 1000 mg/kg was selected for Phase 2.

[4] = Hygroscopicity on 10 minute exposure to the atmosphere; format: physicochemical; conditions: 10 minute exposure of a small amount to the atmosphere; diHCl salt
Description: In Reaction E: 48 ml of HCl in methanol, 6 eq. (1.25 M solution, Aldrich #17935) was added to a solution of compound V, 3.5 g, 0.010 moles dissolved in 10 ml dry methanol in a flask under argon and equipped for magnetic stirring and the reaction was stirred at room temperature for 24 hours. […] The solution was degassed by gently bubbling argon into the solution for 30 minutes. Concentration (rotary evaporator at ambient temperature) provided a crude oily residue which was triturated with hexane producing a white solid. The hexane was removed (via pipette suction) and replaced with dry THF (25 ml). After an additional 10 minutes of trituration, the THF was removed and replaced with dry hexane (25 ml). After an additional 10 minutes of trituration, the hexane was removed and the resulting white solid was dried in vacuo over P2O5 providing 1.95 grams of diHCl salt of PrC-210 (88%). […]
In Reaction P: Compound XVI, 2.2 grams, 0.0058 moles was placed in a round-bottom flask equipped for magnetic stirring followed by 15 mL anhydrous trifluoroacetic acid (CF3COOH, Aldrich #8.08260). The flask was fitted with a condenser and the solution was refluxed for 5 hours whereupon it was determined that the reaction was complete using TLC by observing the disappearance of starting material and the appearance of a highly polar product, which stained positive with ninhydrin. […]

[5] = system: mice exposed to radiation; assay: Protection of mice from lethal radiation (8 Gy, LD100); format: in vivo; conditions: oral gavage 15-90 minutes prior to 8 Gy (LD100), 60 days post irradiation
Description: The radioprotective efficacy of the thiols, prodrugs and double prodrugs according to this disclosure is assessed in mice. The compounds of the disclosure are administered via oral gavage to mice, and are compared to mice that have been administered 3-(methylamino)-2-(methylaminomethyl)propane-1-thiol (PrC-210), as well as to a control group or mice that are administered vehicle (i.e., containing no radioprotective additive).
More specifically, mice are assigned to three groups (Groups 1, 2 and 3). A control group, Group 1, is treated via oral gavage with vehicle (Lactated Ringer's and 5% dextrose, adjusted to pH 7.3 with sodium bicarbonate) 15-90 minutes prior to a dose of 8 Gy (LD100) radiation. Group 2 is treated via oral gavage with PrC-210, as a positive control, dissolved in Lactated Ringer's at a dose of 200 mg/kg 15-90 minutes prior to irradiation with 8 Gy (LD100). Group 3 is treated via oral gavage with compound 1 (PrC-210-PT) dissolved in Lactated Ringer's at a dose of 308 mg/kg 15-90 minutes prior to irradiation with 8 Gy (LD100). The mortality of the three groups is assessed for 60 days post irradiation. The experiment is repeated with doses of PrC-210 ranging from 200 mg/kg to 450 mg/kg. Molar equivalent dosages of the test compound (compound 1, Prc-210-PT) to PrC-210 are also assessed.
The experiment is repeated to assess the efficacy of compounds 2-23 as radioprotectors.

[6] = after 1000 mg/kg oral gavage and TBI 9.9 Gy
[7] = after 1000 mg/kg oral gavage and TBI 9.9 Gy, 11 per group

| Compound | survival compared to vehicle (Group 13) by Chi-square test [3] | survival compared to vehicle (Group 13) by Log-rank (Mantel-Cox) test [3] | Survival [3] | number of animals with eye discharge [3, 7] | number of animals with hypoactivity [3, 7] | number of animals with swollen eye [3, 7] | body weight gain on Days 5 to 9 [3, 6] | median survival time [3] | number of animals survived until scheduled sacrifice (Day 30) [3] | number of mice moribund sacrificed [3] | survival of animals through 30 days post exposure [3] | toxicity at the highest tested dose (mice) | hygroscopicity [4] | number of animals with cold to touch skin [3, 7] | number of mice with lethargy [3, 7] | number of mice with swollen head [3, 7] | number of mice found dead [3] | other results |
| --- | --- | --- | --- | --- | --- | --- | --- | --- | --- | --- | --- | --- | --- | --- | --- | --- | --- | --- |
| CNCC(CS)CNC [PrC-210, 3-(methylamino)-2-((methylamino)methyl)propane-1-thiol, reference compound] | statistically significantly higher | statistically significantly higher | 36.4% | one | 5 | one | significantly higher | 11 days | 4 | 7 | increased survival | did not produce any toxicity | did not show any signs of hygroscopicity | – | – | – | – | radiation LD50 versus control group [1]: control group demonstrates a lower LD50 compared to the mice treated with; radioprotective properties ([2]; administered topically and orally in preclinical studies): demonstrated radioprotective properties; side effects ([2]; compared with Amifostine): less side effects than Amifostine; mean body weight on Day 9 versus Groups 13, 15 and 16 [3, 6]: higher; number of mice with tremor [3, 7]: 4; rate of survival versus control group [5]: control group demonstrates a reduced rate of survival compared to the mice treated with |
| NCCCNCCSP(=O)(O)O [Amifostine, amifostine] | – | – | – | – | – | – | – | – | – | – | – | – | – | – | – | – | – | efficacy as a radioprotector ([2]; administered orally): lacks efficacy |
| SCC1CNCCNC1 [Compound 22, (1,4-diazepan-6-yl)methanethiol] | – | statistically significantly higher | 27.3% | 2 | 5 | 2 | did not gain body weights | 11 days | 3 | 7 | increased survival | did not produce any toxicity | did not show any signs of hygroscopicity | one | one | one | one | mortality rate at 8-days post-irradiation ([3]; 1000 mg/kg oral gavage before TBI): efficacious effects; number of animals with eye cloudy [3, 7]: 2; number of animals with sunken eye [3, 7]: 1; number of mice with eye opacity [3, 7]: one; number of mice with labored breathing [3, 7]: one |
| CC(C)(S)C1CNCCN1 (centres unmarked) [Compound 2Pip-2PrSH, 2-(piperazin-2-yl)propane-2-thiol] | not statistically significantly different | statistically significantly higher | 0% | one | 5 | one | did not gain body weights | 10 days | no animals survived | Five | – | did not produce any toxicity | – | 4 | one | one | six | – |
